Like-named read-outs stand apart in the source and are kept apart here.
How the values were obtained:
[1] = target: hERG (Homo sapiens, UniProt Q12809); assay: hERG manual patch clamp assay; settings: read-out: hERG channel IC50
[2] = target: Nav1.5 (Homo sapiens, UniProt Q14524); assay: receptor profile (Table S4); settings: human
[3] = target: hr Nav1.5 (Homo sapiens, UniProt Q14524); assay: receptor profile (Table S4); settings: hr Nav1.5
[4] = target: hr KDR (Homo sapiens, UniProt P35968); assay: receptor profile (Table S4); assay type: biochemical
[5] = system: h PDE3
[6] = target: T1, hr AT1 (Homo sapiens, UniProt P30556); assay: receptor profile (Table S4); assay type: binding
T1 sequence (P30556 1-359): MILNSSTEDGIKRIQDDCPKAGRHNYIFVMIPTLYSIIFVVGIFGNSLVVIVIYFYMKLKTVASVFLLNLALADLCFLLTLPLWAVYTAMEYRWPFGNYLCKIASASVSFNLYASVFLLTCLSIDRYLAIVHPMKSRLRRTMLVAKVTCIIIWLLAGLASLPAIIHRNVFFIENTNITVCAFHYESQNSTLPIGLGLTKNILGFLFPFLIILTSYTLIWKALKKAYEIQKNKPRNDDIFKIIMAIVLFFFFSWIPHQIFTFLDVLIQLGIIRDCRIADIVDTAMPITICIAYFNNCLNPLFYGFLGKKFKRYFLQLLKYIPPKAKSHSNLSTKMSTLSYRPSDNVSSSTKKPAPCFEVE

[7] = target: T2, hr Al2A ag (Homo sapiens, UniProt P08913); assay: receptor profile (Table S4); assay type: biochemical
T2 sequence (P08913 1-465): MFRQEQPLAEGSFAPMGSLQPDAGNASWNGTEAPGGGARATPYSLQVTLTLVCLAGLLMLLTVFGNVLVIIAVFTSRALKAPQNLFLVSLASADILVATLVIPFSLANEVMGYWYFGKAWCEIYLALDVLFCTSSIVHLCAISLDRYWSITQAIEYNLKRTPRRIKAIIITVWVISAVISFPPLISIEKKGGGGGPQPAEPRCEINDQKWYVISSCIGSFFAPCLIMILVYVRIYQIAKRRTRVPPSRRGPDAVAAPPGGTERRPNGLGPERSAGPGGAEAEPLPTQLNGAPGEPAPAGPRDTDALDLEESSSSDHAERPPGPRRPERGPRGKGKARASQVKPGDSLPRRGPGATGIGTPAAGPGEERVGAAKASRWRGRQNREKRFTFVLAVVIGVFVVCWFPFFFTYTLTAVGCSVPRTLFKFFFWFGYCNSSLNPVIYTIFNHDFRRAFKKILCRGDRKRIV

[8] = metabolite profile in monkey hepatocytes; assay type: in vitro ADME; settings: 10 μM of 1 for 4 h, UV 250 nm, normalized to largest peak
[9] = target: T3, hr M2 ag (Homo sapiens, UniProt P08172); assay: receptor profile (Table S4); assay type: biochemical
T3 sequence (P08172 1-466): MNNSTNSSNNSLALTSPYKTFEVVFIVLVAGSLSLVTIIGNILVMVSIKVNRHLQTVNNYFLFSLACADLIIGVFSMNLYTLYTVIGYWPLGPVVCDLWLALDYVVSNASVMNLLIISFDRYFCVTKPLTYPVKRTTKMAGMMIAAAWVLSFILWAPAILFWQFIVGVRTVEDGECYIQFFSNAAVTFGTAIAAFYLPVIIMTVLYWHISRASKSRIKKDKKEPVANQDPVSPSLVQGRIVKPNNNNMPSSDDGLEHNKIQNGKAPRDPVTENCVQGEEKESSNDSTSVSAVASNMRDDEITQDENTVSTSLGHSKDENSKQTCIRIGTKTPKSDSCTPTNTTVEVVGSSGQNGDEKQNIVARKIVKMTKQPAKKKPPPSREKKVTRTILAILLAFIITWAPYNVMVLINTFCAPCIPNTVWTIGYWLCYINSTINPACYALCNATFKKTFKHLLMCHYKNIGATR

[10] = target: rVMAT2 uptake (Rattus norvegicus, UniProt Q01827); assay: receptor profile (Table S4); assay type: biochemical
[11] = system: hr GABAA ag
[12] = system: h Nic(cns)
[13] = target: T4, hr Al1A ag (Homo sapiens, UniProt P35348); assay: receptor profile (Table S4); assay type: biochemical
T4 sequence (P35348 1-466): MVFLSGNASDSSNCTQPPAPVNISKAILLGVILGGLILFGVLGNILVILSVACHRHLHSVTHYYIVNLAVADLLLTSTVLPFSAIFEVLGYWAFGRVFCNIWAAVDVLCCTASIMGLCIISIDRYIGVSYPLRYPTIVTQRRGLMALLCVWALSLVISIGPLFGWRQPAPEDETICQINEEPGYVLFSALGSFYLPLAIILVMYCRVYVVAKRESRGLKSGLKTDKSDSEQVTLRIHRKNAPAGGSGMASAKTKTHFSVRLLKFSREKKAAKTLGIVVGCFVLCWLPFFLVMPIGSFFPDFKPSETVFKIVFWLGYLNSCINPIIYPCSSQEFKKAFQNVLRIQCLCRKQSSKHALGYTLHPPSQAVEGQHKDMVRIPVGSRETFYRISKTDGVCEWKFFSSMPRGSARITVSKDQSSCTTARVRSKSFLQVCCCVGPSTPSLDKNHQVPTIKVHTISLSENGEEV

hr KDR, sequence (P35968 20-1356): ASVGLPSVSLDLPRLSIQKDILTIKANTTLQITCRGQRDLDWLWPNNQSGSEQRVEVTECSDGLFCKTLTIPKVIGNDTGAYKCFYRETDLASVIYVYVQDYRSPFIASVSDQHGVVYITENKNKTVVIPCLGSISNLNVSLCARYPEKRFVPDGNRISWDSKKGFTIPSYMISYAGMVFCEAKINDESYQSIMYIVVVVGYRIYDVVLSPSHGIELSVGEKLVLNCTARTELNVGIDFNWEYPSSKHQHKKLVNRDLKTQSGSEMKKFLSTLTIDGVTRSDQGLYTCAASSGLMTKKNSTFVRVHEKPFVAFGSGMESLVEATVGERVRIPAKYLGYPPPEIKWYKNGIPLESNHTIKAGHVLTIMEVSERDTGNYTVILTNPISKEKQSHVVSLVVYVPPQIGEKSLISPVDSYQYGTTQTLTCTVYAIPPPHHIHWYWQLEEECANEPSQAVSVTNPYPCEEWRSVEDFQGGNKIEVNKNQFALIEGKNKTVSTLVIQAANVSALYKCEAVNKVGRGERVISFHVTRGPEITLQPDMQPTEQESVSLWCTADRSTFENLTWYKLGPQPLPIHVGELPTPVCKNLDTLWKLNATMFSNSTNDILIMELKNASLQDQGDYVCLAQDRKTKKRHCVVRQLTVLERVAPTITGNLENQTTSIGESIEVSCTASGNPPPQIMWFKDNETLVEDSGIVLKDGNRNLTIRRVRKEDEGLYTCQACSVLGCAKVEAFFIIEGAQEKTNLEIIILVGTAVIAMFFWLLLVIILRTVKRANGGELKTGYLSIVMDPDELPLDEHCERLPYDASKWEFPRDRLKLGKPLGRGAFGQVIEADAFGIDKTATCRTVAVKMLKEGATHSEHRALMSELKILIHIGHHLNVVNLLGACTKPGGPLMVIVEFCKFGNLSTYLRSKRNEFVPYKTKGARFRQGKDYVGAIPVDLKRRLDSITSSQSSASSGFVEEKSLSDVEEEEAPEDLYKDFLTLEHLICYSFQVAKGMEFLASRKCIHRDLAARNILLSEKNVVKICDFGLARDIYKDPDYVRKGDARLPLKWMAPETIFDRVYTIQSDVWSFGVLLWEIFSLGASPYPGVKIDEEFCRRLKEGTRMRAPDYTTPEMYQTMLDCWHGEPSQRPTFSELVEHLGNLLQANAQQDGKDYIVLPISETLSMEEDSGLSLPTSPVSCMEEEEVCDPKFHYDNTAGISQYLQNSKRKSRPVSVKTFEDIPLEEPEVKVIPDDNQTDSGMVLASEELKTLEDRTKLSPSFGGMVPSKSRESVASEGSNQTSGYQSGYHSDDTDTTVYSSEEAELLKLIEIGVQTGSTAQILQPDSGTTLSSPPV
rVMAT2 uptake, sequence (Q01827 whole entry): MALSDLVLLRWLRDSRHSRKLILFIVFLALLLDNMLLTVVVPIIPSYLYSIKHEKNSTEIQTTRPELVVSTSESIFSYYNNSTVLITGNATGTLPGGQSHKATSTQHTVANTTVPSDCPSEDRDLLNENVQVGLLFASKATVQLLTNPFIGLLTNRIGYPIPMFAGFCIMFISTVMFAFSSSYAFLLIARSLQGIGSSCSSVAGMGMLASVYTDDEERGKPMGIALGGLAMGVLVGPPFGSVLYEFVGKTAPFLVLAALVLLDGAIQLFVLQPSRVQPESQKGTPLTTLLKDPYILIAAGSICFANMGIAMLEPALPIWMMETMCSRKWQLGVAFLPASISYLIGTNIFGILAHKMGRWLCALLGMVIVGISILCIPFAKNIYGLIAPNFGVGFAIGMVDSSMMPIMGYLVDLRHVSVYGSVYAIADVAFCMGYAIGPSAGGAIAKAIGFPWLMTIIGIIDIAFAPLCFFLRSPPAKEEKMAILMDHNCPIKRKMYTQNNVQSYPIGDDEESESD
Nav1.5, sequence (Q14524 whole entry): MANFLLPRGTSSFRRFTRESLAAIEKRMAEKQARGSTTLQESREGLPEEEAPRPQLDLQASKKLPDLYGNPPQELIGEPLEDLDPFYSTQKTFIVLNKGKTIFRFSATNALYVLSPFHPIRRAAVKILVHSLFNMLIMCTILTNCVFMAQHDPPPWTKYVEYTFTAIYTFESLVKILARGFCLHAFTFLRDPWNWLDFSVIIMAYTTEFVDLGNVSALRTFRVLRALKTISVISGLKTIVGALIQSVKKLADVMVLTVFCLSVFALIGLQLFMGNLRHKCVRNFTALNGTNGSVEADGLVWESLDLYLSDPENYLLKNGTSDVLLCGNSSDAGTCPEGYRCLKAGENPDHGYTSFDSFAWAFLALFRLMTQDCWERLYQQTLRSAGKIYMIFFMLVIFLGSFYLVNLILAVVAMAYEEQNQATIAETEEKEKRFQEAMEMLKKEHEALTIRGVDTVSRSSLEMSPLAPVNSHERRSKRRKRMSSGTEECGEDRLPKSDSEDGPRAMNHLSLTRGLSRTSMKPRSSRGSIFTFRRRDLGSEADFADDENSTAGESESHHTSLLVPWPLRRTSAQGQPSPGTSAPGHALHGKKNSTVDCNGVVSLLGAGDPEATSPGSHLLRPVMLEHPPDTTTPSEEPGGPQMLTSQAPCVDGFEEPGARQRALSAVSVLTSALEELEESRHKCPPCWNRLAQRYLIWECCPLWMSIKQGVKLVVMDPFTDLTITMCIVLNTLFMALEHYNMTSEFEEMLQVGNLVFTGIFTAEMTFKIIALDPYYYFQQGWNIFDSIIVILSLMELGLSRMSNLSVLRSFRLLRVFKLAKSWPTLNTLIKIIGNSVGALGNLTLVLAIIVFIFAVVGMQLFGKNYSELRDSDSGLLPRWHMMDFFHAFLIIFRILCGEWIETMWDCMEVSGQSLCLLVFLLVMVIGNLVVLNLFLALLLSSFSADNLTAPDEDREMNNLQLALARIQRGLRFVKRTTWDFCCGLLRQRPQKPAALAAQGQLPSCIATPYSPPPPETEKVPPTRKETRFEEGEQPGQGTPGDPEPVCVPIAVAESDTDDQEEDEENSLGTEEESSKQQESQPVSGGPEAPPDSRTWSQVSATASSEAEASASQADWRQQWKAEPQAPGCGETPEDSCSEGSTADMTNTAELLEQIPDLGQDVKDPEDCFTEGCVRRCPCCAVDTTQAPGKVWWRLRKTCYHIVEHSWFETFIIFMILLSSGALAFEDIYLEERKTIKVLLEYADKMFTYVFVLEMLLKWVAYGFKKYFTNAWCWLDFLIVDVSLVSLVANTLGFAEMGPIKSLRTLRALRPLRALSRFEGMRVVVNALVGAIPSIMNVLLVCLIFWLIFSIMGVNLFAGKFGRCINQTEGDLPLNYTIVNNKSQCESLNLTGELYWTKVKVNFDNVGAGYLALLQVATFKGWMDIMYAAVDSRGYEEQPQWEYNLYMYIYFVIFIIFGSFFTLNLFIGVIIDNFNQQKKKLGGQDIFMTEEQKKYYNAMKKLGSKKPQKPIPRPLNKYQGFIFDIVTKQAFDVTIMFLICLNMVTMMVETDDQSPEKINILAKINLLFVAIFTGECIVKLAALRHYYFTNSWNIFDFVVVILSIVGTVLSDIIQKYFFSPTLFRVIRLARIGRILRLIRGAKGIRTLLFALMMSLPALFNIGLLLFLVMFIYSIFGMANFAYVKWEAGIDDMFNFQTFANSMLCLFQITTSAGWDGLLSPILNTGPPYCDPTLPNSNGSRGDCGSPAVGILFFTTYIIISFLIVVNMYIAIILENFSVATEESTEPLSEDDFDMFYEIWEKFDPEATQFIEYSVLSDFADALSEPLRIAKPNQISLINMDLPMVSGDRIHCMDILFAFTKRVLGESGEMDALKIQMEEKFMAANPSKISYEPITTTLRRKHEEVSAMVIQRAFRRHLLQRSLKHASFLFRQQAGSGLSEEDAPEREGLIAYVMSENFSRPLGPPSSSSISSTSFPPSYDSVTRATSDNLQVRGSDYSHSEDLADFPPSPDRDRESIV
hERG, sequence (Q12809 whole entry): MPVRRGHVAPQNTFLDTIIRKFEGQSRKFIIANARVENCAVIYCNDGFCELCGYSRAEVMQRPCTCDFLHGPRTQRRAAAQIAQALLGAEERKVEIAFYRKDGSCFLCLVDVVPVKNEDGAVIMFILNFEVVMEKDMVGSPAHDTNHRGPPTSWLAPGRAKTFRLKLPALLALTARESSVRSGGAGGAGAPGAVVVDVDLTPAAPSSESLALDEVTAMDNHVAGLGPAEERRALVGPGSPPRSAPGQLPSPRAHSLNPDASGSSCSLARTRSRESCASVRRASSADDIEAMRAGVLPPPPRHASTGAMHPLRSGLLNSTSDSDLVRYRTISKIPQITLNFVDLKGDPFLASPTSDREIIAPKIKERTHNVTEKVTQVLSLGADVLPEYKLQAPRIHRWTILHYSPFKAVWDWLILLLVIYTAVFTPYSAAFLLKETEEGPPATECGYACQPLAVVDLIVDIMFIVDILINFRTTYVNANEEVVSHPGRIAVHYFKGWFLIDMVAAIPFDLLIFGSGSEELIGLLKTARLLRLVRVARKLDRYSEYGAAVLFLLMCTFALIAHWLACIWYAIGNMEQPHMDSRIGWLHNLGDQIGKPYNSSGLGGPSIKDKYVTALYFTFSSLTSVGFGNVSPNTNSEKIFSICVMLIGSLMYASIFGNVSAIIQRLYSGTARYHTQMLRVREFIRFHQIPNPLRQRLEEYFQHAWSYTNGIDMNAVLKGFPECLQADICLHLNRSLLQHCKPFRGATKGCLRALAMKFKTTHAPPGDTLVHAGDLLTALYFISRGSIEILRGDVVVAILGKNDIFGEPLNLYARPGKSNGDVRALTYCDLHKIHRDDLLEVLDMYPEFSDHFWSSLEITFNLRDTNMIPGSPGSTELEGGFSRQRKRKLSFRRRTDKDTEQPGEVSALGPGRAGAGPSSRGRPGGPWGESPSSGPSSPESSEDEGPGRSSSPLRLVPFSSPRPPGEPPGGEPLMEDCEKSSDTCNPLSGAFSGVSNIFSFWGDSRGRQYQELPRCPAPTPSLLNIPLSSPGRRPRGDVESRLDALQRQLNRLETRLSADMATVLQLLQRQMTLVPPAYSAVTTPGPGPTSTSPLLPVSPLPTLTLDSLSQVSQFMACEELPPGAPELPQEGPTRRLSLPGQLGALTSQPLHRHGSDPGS

Cc1nc(C)c(C(=O)Nc2ccc(F)c(-c3nc4ncc(-c5ncccc5C)cn4n3)c2)o1 [compound 1, N-(4-Fluoro-3-(6-(3-methylpyridin-2-yl)-[1,2,4]triazolo[1,5-a]pyrimidin-2-yl)phenyl)-2,4-dimethyloxazole-5-carboxamide] gave an IC50 [1] of over 30 µM, an inhibition at 10 µM [2] of 8% and an inhibition at 30 µM [2] of 3%. For the same compound, the EC50/IC50 [3] was over 50 µM, the EC50/IC50 ([4]; hr KDR) was over 30 µM and the inhibition at 10 µM ([4]; read-out: % inh/act @ 10 µM) was 21%. The inhibition at 30 µM ([4]; read-out: % inh/act @ 30 µM) was 22%, the “% inh/act @ 10 µM” value [5] was 6% and the “% inh/act @ 30 µM” value [5] was 4%. The EC50/IC50 ([6]; hr AT1) was over 30 µM, the inhibition at 10 µM ([6]; read-out: % inh/act @ 10 µM) was 22% and the inhibition at 30 µM ([6]; read-out: % inh/act @ 30 µM) was 41%. It also gave an EC50/IC50 ([7]; hr Al2A ag) of over 30 µM, an inhibition at 10 µM ([7]; read-out: % inh/act @ 10 µM) of 0% and an inhibition at 30 µM ([7]; read-out: % inh/act @ 30 µM) of 0%. For the same compound, the abundance monkey [8] was “+++ (+++ > 75%)”, the EC50/IC50 ([9]; hr M2 ag) was over 30 µM and the inhibition at 10 µM ([9]; read-out: % inh/act @ 10 µM) was 0%. It also gave an inhibition at 30 µM ([9]; read-out: % inh/act @ 30 µM) of 1%, an EC50/IC50 ([10]; rVMAT2 uptake) of 3.9 µM and an inhibition at 10 µM ([10]; read-out: % inh/act @ 10 µM) of 64%. The inhibition at 30 µM ([10]; read-out: % inh/act @ 30 µM) was 78%, the inhibition at 10 µM ([10]; read-out: VMAT2 inhibition) was 61% and the “% inh/act @ 10 µM” value [11] was -11%. For the same compound, the “% inh/act @ 30 µM” value [11] was -2%, the “% inh/act @ 10 µM” value [12] was 20% and the “% inh/act @ 30 µM” value [12] was 24%. It also gave an EC50/IC50 ([13]; hr Al1A ag) of over 30 µM, an inhibition at 10 µM ([13]; read-out: % inh/act @ 10 µM) of 0% and an inhibition at 30 µM ([13]; read-out: % inh/act @ 30 µM) of 1%.
